Values joined by “and” are separate entries in the source; they are usually repeats but may differ in a detail not shown here. Equal entries are not always repeated.
Experiments:
Assay type in all cases: cell-based, human
[1] = test system: PolII Ser2 phosphorylation, CCNK and CDK12 levels in MCF7-CDK12-D819N cells; experiment: Immunoblotting after CDK12 drugs, MCF7-CDK12-D819N; conditions: 6 h, immunoblot
Description: (§1) Whole-cell lysates were prepared in RIPA buffer (Sigma-Aldrich), supplemented with protease and phosphatase inhibitor cocktails (Roche). Protein sample concentrations were determined using the Pierce BCA Protein Assay kit (ThermoFisher Scientific). In all, 10–20 µg of total protein was loaded for each sample and resolved on 4–15% Mini-PROTEAN TGX Precast Protein Gels (BIO-RAD). Immunoblotting was performed as described (Patel et al, [2018]), using antibodies diluted 1:1000 for P-CDK2 (Thr160; 2561S), CDK2 (2546S), P-Rb (Ser807/811; 9308), Rb (9309), CDK7 (2916) and CDK12 (11973S), from Cell Signalling Technology. PolII CTD phosphorylation antibodies (P-Ser2 (ab5095) and P-Ser5 (ab5131), used at 1:10,000 dilution), as well as total PolII (ab817; 1:2000 dilution) and β-actin (ab6276; 1:100,000 dilution) were purchased from Abcam. CCNK antibody (Thermofisher A301-939A) was used at a 1:1000 dilution. Band intensities were quantified using ImageJ (Schneider et al, [2012]).

MCF7 cells = experiment: Growth assay (SRB), MCF7; conditions: for IC50: 4 days, SRB; for % Growth: biological reps
Description: (§2) To determine the IC50 of drug treatments on growth, cells were seeded in 96-well culture plates. Two days after seeding, the cells were treated with increasing concentrations of drugs and incubated for 4 days. Cell number was determined using the SRB assay (Skehan et al, [1990]), and IC50 values were calculated using non-linear regression curve fitting in GraphPad Prism v10. For all other growth experiments, cells were seeded into 96-well plates, and appropriate drugs were added 2 days after seeding. Cells were then incubated in an IncuCyte Zoom live-cell imager, with cell confluency measured every 6 h. Cell doubling times were determined by non-linear curve fitting (exponential growth equation) in GraphPad Prism v10.

[2] = test system: MCF7 CDK12-D819N mutant cells; experiment: Growth assay (SRB), MCF7 CDK12-D819N knock-in; conditions: for IC50: MCF7 CDK12-D819N, SRB; for % Growth: MCF7 CDK12 D819N, biological reps
Description: as §2
Alt-R^TM S.p. Cas9 nuclease V3, Alt-R CRISPR-Cas9 crRNA, TracrRNA and the donor templates were obtained from Integrated DNA Technologies. […] Cells were treated with 0.7 µM of Alt-R HDR Enhancer V2 to improve HRD efficiency. Sequences of the CRISPRs in the crRNA and the donor templates are shown in the Reagents and tools table. Donor templates were designed to include non-coding substitutions to aid genome DNA PCR for identifying knock-in events and to facilitate cloning; these substitutions are noted in the Reagents and tools table.

[3] = test system: PolII Ser2 phosphorylation, cyclin K and CDK12 levels in MCF7 cells; experiment: Immunoblotting after CDK12 drugs, MCF7; conditions: WT MCF7; 6 h; immunoblot
Description: as §1

| SMILES | PolII phosphorylation [1] | % Growth (MCF7 cells; Log10 Conc. (nM) 0.09, 4 days) | % Growth (MCF7 cells; Log10 Conc. (nM) 0.69, 4 days) | % Growth (MCF7 cells; Log10 Conc. (nM) 1.29, 4 days) | % Growth (MCF7 cells; Log10 Conc. (nM) 1.89, 4 days) | % Growth (MCF7 cells; Log10 Conc. (nM) -0.52, 4 days) | % Growth (MCF7 cells; Log10 Conc. (nM) -1.12, 4 days) | Fold Resistance ([2]; MCF7 CDK12-D819N vs MCF7) | % Growth ([2]; Log10 Conc. (nM) 0.09) | % Growth ([2]; Log10 Conc. (nM) 0.69) | % Growth ([2]; Log10 Conc. (nM) 1.29) | % Growth ([2]; Log10 Conc. (nM) 1.89) | % Growth ([2]; Log10 Conc. (nM) 2.49) | % Growth ([2]; Log10 Conc. (nM) -0.52) | % Growth ([2]; Log10 Conc. (nM) -1.12) | also measured |
| --- | --- | --- | --- | --- | --- | --- | --- | --- | --- | --- | --- | --- | --- | --- | --- | --- |
| CN(C)C/C=C/C(=O)Nc1ccc(C(=O)N2CCC[C@@H](Nc3ncc(Cl)c(-c4c[nH]c5ccccc45)n3)C2)cc1 [THZ531] | Nor was inhibition of PolII Ser2 phosphorylation by THZ531 prevented | 83.64% and 110.72% and 83.40% | 91.77% and 84.06% and 83.58% | 66.96% and 86.43% and 81.13% | 75.32% and 77.69% and 76.55% | 81.18% and 108.13% and 93.60% | 80.76% and 102.91% and 88.48% | 1.8 fold | 81.51% and 77.00% | 84.74% and 98.74% | 57.64% and 84.58% | 68.69% and 77.28% | 55.68% and 52.04% | 82.78% and 107.29% | 79.06% and 90.61% | IC50 (MCF7 cells; Homo sapiens, 96 h): 356 nM; % Growth (MCF7 cells; Log10 Conc. (nM) 2.49, 4 days): 43.53% and 60.32% and 39.54%; % Growth (MCF7 cells; Log10 Conc. (nM) 3.70, 4 days): 4.54% and 7.84% and 2.57%; IC50 ([2]; Homo sapiens): 656 nM; Difference between the cell lines in growth response ([2]; MCF7 CDK12-D819N vs MCF7): no significant difference; % Growth ([2]; Log10 Conc. (nM) 3.10): 37.19% and 21.76%; % Growth ([2]; Log10 Conc. (nM) 3.70): 3.93% and -0.68% |
| CC[C@H](CO)Nc1nc(NCc2ccc(-c3ccccn3)cc2)c2ncn(C(C)C)c2n1 [(R)-CR8] | not inhibited | 113.64% and 90.46% and 92.99% | 122.04% and 94.84% and 85.58% | 76.32% and 89.54% and 75.98% | 57.39% and 71.11% and 59.97% | 115.95% and 88.99% and 104.00% | 101.40% and 88.53% and 107.01% | 12.6 fold | 94.80% and 70.33% and 88.48% | 98.42% and 96.39% and 105.30% | 84.25% and 91.23% and 97.75% | 95.93% and 89.18% and 103.58% | 84.48% and 84.10% and 82.39% | 97.14% and 75.33% and 99.34% | 97.97% and 74.35% and 85.17% | CCNK and CDK12 levels [1]: not reduced; IC50 (MCF7 cells): 84.5 nM; Levels of cyclin K and CDK12 [3]: reduced; PolII Ser2 phosphorylation [3]: reduced; IC50 [2]: 1060 nM |

From publication PMC12528448, “Resistance to CDK7 inhibitors directed by acquired mutation of a conserved residue in cancer cells” (The EMBO Journal, 2025)
